Laboratory results taken from patent publication US8158670B2 (priority 1996, dated 2012).
Like-named read-outs stand apart in the source and are kept apart here.

What was measured:
[1] = test system: Vascular smooth muscle (BO54) cells; format: cell-based, baboon; conditions: 5 minute exposure
[2] = test system: Vascular smooth muscle (BO54) cells; format: cell-based, baboon; conditions: 5 minute exposure; remark: listed apart in the source
[3] = test system: Vascular smooth muscle cells (BO54); test: Scratch-migration assay; format: cell-based, baboon; set-up: key to Migration Grade in the Cleared Area of the Well / Migration Grade in an Undisturbed Region of the Well: −=no migration; +1=minimal; +2=mild; +3=moderate; +4=marked (maximum density; limit of cell contact inhibition) migration
Protocol: Vascular smooth muscle cells (BO54) were derived from explants of baboon aortic smooth muscle, as described in Example 10. The cells were grown in flat bottom, six well tissue culture plates, which hold about 5 ml of medium. The vascular smooth muscle cells were plated at 200,000 cells/well and placed at 37° C. in a humidified 5% CO2 incubator for 18 hours. The wells were then scratched with a sterile portion of a single edge razor blade that was held by clamp or pliers and was brought aseptically into contact with the bottom of the well at a 90° angle. The cells from a small area along the scratch were removed by a sterile cotton tipped applicator while the blade was in contact with the bottom of the well. After incubation, the presence of cells in the “scratched” area is indicative of cell migration across the scratch line.
Briefly, a stock solution of cytochalasin B (Sigma Chemical Co.) in dimethyl sulfoxide (DMSO) at 1 mg/ml was prepared. Test dilutions of cytochalasin B or control medium were added. Each experiment included two sets of plates:
A set: Test agent exposure for 1, 3, 6, 8 and 10 days only; and
B set: Test agent exposure for 1, 3, 6, 8 and 10 days, followed by a seven day recovery time with control medium.
Both sets of plates were fixed (10% formalin in PBS) and stained (0.02% crystal violet) at the end of the timed exposures. Test concentrations for cytochalasin B were 1, 0.1 and 0.01 μg/ml, and a negative medium control was included. Fresh medium and drug were supplied 3 times per week.
In this Table, “M” indicates Migration Grade. wherein −=no migration; +1=minimal; +2=mild; +3=moderate; and +4=marked (maximum density; limit of cell contact inhibition) migration of vascular smooth muscle cells into the cleared area adjacent to the scratch. In this Table, “T” denotes a morphological Toxicity Grade, wherein −=no toxicity; +1=minimal; +2=mild; +3=moderate; and +4=marked toxicity. The migration results are expressed as “Grade in the Cleared Area of the Well/Grade in an Undisturbed Region of the Well.” The toxicity values represent a grade for all cells in each well.

[4] = test system: vascular smooth muscle cells of balloon-traumatized arteries; format: in vivo, pig; conditions: relative to a PBS control
[5] = test system: vascular smooth muscle cells
[6] = Day 1, Continuous Exposure, 0.01 μg/mL
[7] = Day 1, Continuous Exposure, 0.1 μg/mL
[8] = Day 1, Continuous Exposure, 1.0 μg/mL
[9] = Day 1 exposure, 7-day Recovery Post Exposure, 0.01 μg/mL
[10] = Day 1 exposure, 7-day Recovery Post Exposure, 0.1 μg/mL
[11] = Day 1 exposure, 7-day Recovery Post Exposure, 1.0 μg/mL
[12] = Day 3, Continuous Exposure, 0.01 μg/mL
[13] = Day 3, Continuous Exposure, 0.1 μg/mL
[14] = Day 3, Continuous Exposure, 1.0 μg/mL
[15] = Day 3 exposure, 7-day Recovery Post Exposure, 0.01 μg/mL
[16] = Day 3 exposure, 7-day Recovery Post Exposure, 0.1 μg/mL
[17] = Day 3 exposure, 7-day Recovery Post Exposure, 1.0 μg/mL
[18] = Day 6, Continuous Exposure, 0.01 μg/mL
[19] = Day 6, Continuous Exposure, 0.1 μg/mL
[20] = Day 6, Continuous Exposure, 1.0 μg/mL
[21] = Day 6 exposure, 7-day Recovery Post Exposure, 0.01 μg/mL
[22] = Day 6 exposure, 7-day Recovery Post Exposure, 0.1 μg/mL
[23] = Day 6 exposure, 7-day Recovery Post Exposure, 1.0 μg/mL
[24] = Day 8, Continuous Exposure, 0.01 μg/mL
[25] = Day 8, Continuous Exposure, 0.1 μg/mL
[26] = Day 8, Continuous Exposure, 1.0 μg/mL
[27] = Day 8 exposure, 7-day Recovery Post Exposure, 0.01 μg/mL
[28] = Day 8 exposure, 7-day Recovery Post Exposure, 0.1 μg/mL
[29] = Day 8 exposure, 7-day Recovery Post Exposure, 1.0 μg/mL
[30] = Day 10, Continuous Exposure, 0.01 μg/mL
[31] = Day 10, Continuous Exposure, 0.1 μg/mL
[32] = Day 10, Continuous Exposure, 1.0 μg/mL
[33] = Day 10 exposure, 7-day Recovery Post Exposure, 0.01 μg/mL
[34] = Day 10 exposure, 7-day Recovery Post Exposure, 0.1 μg/mL
[35] = Day 10 exposure, 7-day Recovery Post Exposure, 1.0 μg/mL

For C=C1[C@@H](C)[C@H]2[C@H](Cc3ccccc3)NC(=O)[C@]23OC(=O)/C=C/[C@H](O)CCC[C@@H](C)C/C=C/[C@H]3[C@@H]1O [cytochalasin B], the “minimum effective dose (MED)” value [1] was 10 µg/mL, the “minimum effective dose (MED)” value [2] was 10 µg/mL and the “ability to migrate following removal of the therapeutic agent” value ([3]; 0.1 μg/ml, even after 10 days of continuous exposure) was “+3 to +4”. The “Migration Grade in an Undisturbed Region of the Well” value [3, 6] was “+3”, the “Migration Grade in the Cleared Area of the Well” value [3, 6] was “+1” and the “Migration Grade in an Undisturbed Region of the Well” value [3, 7] was “+3”. The “Migration Grade in the Cleared Area of the Well” value [3, 7] was “+1”, the “Migration Grade in an Undisturbed Region of the Well” value [3, 8] was “+2” and the “Migration Grade in the Cleared Area of the Well” value [3, 8] was “−”. The “Migration Grade in an Undisturbed Region of the Well” value [3, 9] was −4, the “Migration Grade in the Cleared Area of the Well” value [3, 9] was “+3” and the “Migration Grade in an Undisturbed Region of the Well” value [3, 10] was “+4”. The “Migration Grade in the Cleared Area of the Well” value [3, 10] was “+3”, the “Migration Grade in an Undisturbed Region of the Well” value [3, 11] was “+3” and the “Migration Grade in the Cleared Area of the Well” value [3, 11] was “+2”. For the same molecule, the “Migration Grade in an Undisturbed Region of the Well” value [3, 12] was “+4”, the “Migration Grade in the Cleared Area of the Well” value [3, 12] was “+3” and the “Migration Grade in an Undisturbed Region of the Well” value [3, 13] was “+4”. For the same molecule, the “Migration Grade in the Cleared Area of the Well” value [3, 13] was “+1”, the “Migration Grade in an Undisturbed Region of the Well” value [3, 14] was “+2” and the “Migration Grade in the Cleared Area of the Well” value [3, 14] was “−”. The “Migration Grade in an Undisturbed Region of the Well” value [3, 15] was −4, the “Migration Grade in the Cleared Area of the Well” value [3, 15] was “+3” and the “Migration Grade in an Undisturbed Region of the Well” value [3, 16] was “+4”. The “Migration Grade in the Cleared Area of the Well” value [3, 16] was “+3”, the “Migration Grade in an Undisturbed Region of the Well” value [3, 17] was “+3” and the “Migration Grade in the Cleared Area of the Well” value [3, 17] was “+2”. For the same molecule, the “Migration Grade in an Undisturbed Region of the Well” value [3, 18] was “+4”, the “Migration Grade in the Cleared Area of the Well” value [3, 18] was “+3” and the “Migration Grade in an Undisturbed Region of the Well” value [3, 19] was “+4”. For the same molecule, the “Migration Grade in the Cleared Area of the Well” value [3, 19] was “+2”, the “Migration Grade in an Undisturbed Region of the Well” value [3, 20] was “+2” and the “Migration Grade in the Cleared Area of the Well” value [3, 20] was “−”. For the same molecule, the “Migration Grade in an Undisturbed Region of the Well” value [3, 21] was “+4/+4”, the “Migration Grade in the Cleared Area of the Well” value [3, 21] was “+4/+4” and the “Migration Grade in an Undisturbed Region of the Well” value [3, 22] was “+4”. For the same molecule, the “Migration Grade in the Cleared Area of the Well” value [3, 22] was “+3”, the “Migration Grade in an Undisturbed Region of the Well” value [3, 23] was “+3” and the “Migration Grade in the Cleared Area of the Well” value [3, 23] was “+2”. For the same molecule, the “Migration Grade in an Undisturbed Region of the Well” value [3, 24] was “+4”, the “Migration Grade in the Cleared Area of the Well” value [3, 24] was “+3” and the “Migration Grade in an Undisturbed Region of the Well” value [3, 25] was “+4”. The “Migration Grade in the Cleared Area of the Well” value [3, 25] was “+2”, the “Migration Grade in an Undisturbed Region of the Well” value [3, 26] was “+2” and the “Migration Grade in the Cleared Area of the Well” value [3, 26] was “−”. The “Migration Grade in an Undisturbed Region of the Well” value [3, 27] was “+4/+4”, the “Migration Grade in the Cleared Area of the Well” value [3, 27] was “+4/+4” and the “Migration Grade in an Undisturbed Region of the Well” value [3, 28] was “+4”. For the same molecule, the “Migration Grade in the Cleared Area of the Well” value [3, 28] was “+3”, the “Migration Grade in an Undisturbed Region of the Well” value [3, 29] was “+3” and the “Migration Grade in the Cleared Area of the Well” value [3, 29] was “+2”. For the same molecule, the “Migration Grade in an Undisturbed Region of the Well” value [3, 30] was “+4”, the “Migration Grade in the Cleared Area of the Well” value [3, 30] was “+3” and the “Migration Grade in an Undisturbed Region of the Well” value [3, 31] was “+4”. For the same molecule, the “Migration Grade in the Cleared Area of the Well” value [3, 31] was “+2”, the “Migration Grade in an Undisturbed Region of the Well” value [3, 32] was “+2” and the “Migration Grade in the Cleared Area of the Well” value [3, 32] was “−”. For the same molecule, the “Migration Grade in an Undisturbed Region of the Well” value [3, 33] was “+4/+4”, the “Migration Grade in the Cleared Area of the Well” value [3, 33] was “+4/+4” and the “Migration Grade in an Undisturbed Region of the Well” value [3, 34] was “+4/+4”. The “Migration Grade in the Cleared Area of the Well” value [3, 34] was “+4/+4”, the “Migration Grade in an Undisturbed Region of the Well” value [3, 35] was “+3” and the “Migration Grade in the Cleared Area of the Well” value [3, 35] was “+2”. The “migration into the cleared area adjacent to the scratch” value ([3]; dose of 0.1 μg/ml) was “+1 to +2”, the “time to resume migration after cells clear the agent” value ([3]; in vitro data) was no more than 24 h and the “BRDU uptake (cell proliferation)” value [4] was “inhibited BRDU uptake (i.e., cell proliferation) without killing the vascular smooth muscle cells”. For the same molecule, the morphological cytotoxicity grade ([5]; 5 min + 24 hrs, 0.1 ug) was 0, the morphological cytotoxicity grade ([5]; 5 min + 24 hrs, 1 ug) was 0.5 and the morphological cytotoxicity grade ([5]; 5 min + 24 hrs, 10 ug) was 4. The morphological cytotoxicity grade ([5]; 5 min + 48 hrs, 0.1 ug) was 0, the morphological cytotoxicity grade ([5]; 5 min + 48 hrs, 1 ug) was 1 and the morphological cytotoxicity grade ([5]; 5 min + 48 hrs, 10 ug) was 4. For the same molecule, the morphological cytotoxicity grade ([5]; 5 min + 72 hrs, 0.1 ug) was 0, the morphological cytotoxicity grade ([5]; 5 min + 72 hrs, 1 ug) was 1 and the morphological cytotoxicity grade ([5]; 5 min + 72 hrs, 10 ug) was 4.5. The morphological cytotoxicity grade ([5]; 5 min + 96 hrs, 0.1 ug) was 0, the morphological cytotoxicity grade ([5]; 5 min + 96 hrs, 1 ug) was 1 and the morphological cytotoxicity grade ([5]; 5 min + 96 hrs, 10 ug) was 5. The morphological cytotoxicity grade ([5]; 5 min + 120 hrs, 0.1 ug) was 0, the morphological cytotoxicity grade ([5]; 5 min + 120 hrs, 1 ug) was 1 and the morphological cytotoxicity grade ([5]; 5 min + 120 hrs, 10 ug) was 5. The morphological cytotoxicity grade ([5]; 24 hrs + 24 hrs, 0.01 ug) was 0, the morphological cytotoxicity grade ([5]; 24 hrs + 24 hrs, 0.1 ug) was 0.5 and the morphological cytotoxicity grade ([5]; 24 hrs + 24 hrs, 1 ug) was 3. It also gave a morphological cytotoxicity grade ([5]; 24 hrs + 48 hrs, 0.01 ug) of 0, a morphological cytotoxicity grade ([5]; 24 hrs + 48 hrs, 0.1 ug) of 1 and a morphological cytotoxicity grade ([5]; 24 hrs + 48 hrs, 1 ug) of 4. For the same molecule, the morphological cytotoxicity grade ([5]; 24 hrs + 72 hrs, 0.01 ug) was 0, the morphological cytotoxicity grade ([5]; 24 hrs + 72 hrs, 0.1 ug) was 0.5 and the morphological cytotoxicity grade ([5]; 24 hrs + 72 hrs, 1 ug) was 4. The morphological cytotoxicity grade ([5]; 24 hrs + 96 hrs, 0.01 ug) was 0, the morphological cytotoxicity grade ([5]; 24 hrs + 96 hrs, 0.1 ug) was 0 and the morphological cytotoxicity grade ([5]; 24 hrs + 96 hrs, 1 ug) was 4. It also gave a morphological cytotoxicity grade ([5]; 24 hrs + 120 hrs, 0.01 ug) of 0, a morphological cytotoxicity grade ([5]; 24 hrs + 120 hrs, 0.1 ug) of 0 and a morphological cytotoxicity grade ([5]; 24 hrs + 120 hrs, 1 ug) of 4. The morphological cytotoxicity grade ([5]; Continuous 6 hrs, 0.01 ug) was 0, the morphological cytotoxicity grade ([5]; Continuous 6 hrs, 0.1 ug) was 0 and the morphological cytotoxicity grade ([5]; Continuous 6 hrs, 1 ug) was 3. It also gave a morphological cytotoxicity grade ([5]; Continuous 24 hrs (first listing, r16), 0.01 ug) of 0, a morphological cytotoxicity grade ([5]; Continuous 24 hrs (first listing, r16), 0.1 ug) of 1 and a morphological cytotoxicity grade ([5]; Continuous 24 hrs (first listing, r16), 1 ug) of 3. The morphological cytotoxicity grade ([5]; Continuous 24 hrs (second listing, r22), 0.01 ug) was 0, the morphological cytotoxicity grade ([5]; Continuous 24 hrs (second listing, r22), 0.1 ug) was 0 and the morphological cytotoxicity grade ([5]; Continuous 24 hrs (second listing, r22), 1 ug) was 3. The morphological cytotoxicity grade ([5]; Continuous 48 hrs, 0.01 ug) was 0, the morphological cytotoxicity grade ([5]; Continuous 48 hrs, 0.1 ug) was 1 and the morphological cytotoxicity grade ([5]; Continuous 48 hrs, 1 ug) was 3.
